Source: patent publication US7338964B2, “2-substituted-1-deaza purine derivatives with adenosine receptor modulating activity” (Solvay Pharmaceuticals, B.V., priority 2004, dated 2008)

Columns and labels:
[1] = molecular target: T1, human adenosine-A2A receptors (Homo sapiens, UniProt P29274); test: In vitro affinity for human adenosine-A2A receptors, [3H]CGS 21680 radioligand binding; details: human recombinant receptors expressed in HEK-293 cells, read-out: Adenosine receptor affinity A2A pKi (converted)
T1 construct: expressed in transfected cells; host or cells: HEK-293 cells
Method: Affinity of the compounds for human adenosine-A2A receptors was determined using the receptor binding assay described by D. R. Luthin et al. (Mol. Pharmacol., 47, 307, 1995), using human recombinant receptors expressed in HEK-293 cells, and [^3H]CGS 21680 as radioligand.

[2] = molecular target: T2, human adenosine-A1 receptors (Homo sapiens, UniProt P30542); test: In vitro affinity for human adenosine-A1 receptors, [3H]DPCPX radioligand binding; details: human recombinant receptors expressed in CHO cells, read-out: Adenosine receptor affinity A1 pKi (converted)
T2 construct: expressed in transfected cells; host or cells: CHO cells
T2 sequence (P30542 1-326): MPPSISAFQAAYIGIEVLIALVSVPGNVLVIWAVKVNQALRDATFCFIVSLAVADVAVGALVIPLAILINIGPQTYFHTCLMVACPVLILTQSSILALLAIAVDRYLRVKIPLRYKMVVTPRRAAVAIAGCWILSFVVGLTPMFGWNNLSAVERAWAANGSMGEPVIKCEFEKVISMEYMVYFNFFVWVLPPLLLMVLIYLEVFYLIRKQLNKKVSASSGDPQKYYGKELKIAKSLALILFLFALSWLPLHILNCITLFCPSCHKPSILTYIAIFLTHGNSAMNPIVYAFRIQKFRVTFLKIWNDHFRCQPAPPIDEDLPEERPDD
Method: Affinity of the compounds for human adenosine-A1 receptors was determined using the receptor binding assay described by A. Townsend-Nicholson and P. R. Schofield (Biol. Chem., 269, 2373, 1994), using human recombinant receptors expressed in CHO cells, and [^3H]DPCPX as radioligand.

[3] = molecular target: T3, human adenosine-A3 receptor (Homo sapiens, UniProt P0DMS8); test: In vitro affinity for human adenosine-A3 receptors, [125I]-AB-MECA radioligand binding; details: human recombinant (HEK 293) cell membranes, read-out: Adenosine receptor affinity A3 pKi (converted)
T3 construct: expressed in transfected cells; membrane preparations
T3 sequence (P0DMS8 1-318): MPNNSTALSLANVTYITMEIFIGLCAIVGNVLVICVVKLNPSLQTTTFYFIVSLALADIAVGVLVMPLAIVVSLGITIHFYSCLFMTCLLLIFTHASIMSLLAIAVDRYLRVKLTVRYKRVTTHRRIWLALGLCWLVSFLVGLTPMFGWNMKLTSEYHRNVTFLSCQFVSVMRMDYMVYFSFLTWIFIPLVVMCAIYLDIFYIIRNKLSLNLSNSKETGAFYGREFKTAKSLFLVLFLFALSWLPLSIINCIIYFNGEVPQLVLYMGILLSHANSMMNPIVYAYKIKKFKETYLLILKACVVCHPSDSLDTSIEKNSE
Method: Affinity of the compounds for human adenosine-A3 receptors was determined using the receptor binding assay described by C. A. Salvatore et al.: “Molecular cloning and characterization of the human A3 adenosine receptor”, Proc. Natl. Acad. Sci. USA, 90, 10365-10369, 1993. Briefly, membrane preparations were obtained from human recombinant (HEK 293) cells in which the human adenosine-A3 receptor was stably expressed. Membranes were incubated at 22° C. for 90 minutes with [^125I]-AB-MECA in the absence or presence of test compounds in a concentration range from 10 μM down to 0.1 nM, diluted in a suitable buffer. Separation of bound radioactivity from free was done by filtration through Packard GF/B glass fiber filters with several washings with ice-cold buffer using a Packard cell harvester. Bound radioactivity was measured with a scintillation counter (Topcount, Packard) using a liquid scintillation cocktail (Microscint 0, Packard). Measured radioactivity was plotted against the concentration of the displacing test compound and displacement curves were calculated by four-parameter logistic regression, resulting in IC50 values, i.e. that concentration of displacing compound by which 50% of the radioligand is displaced. […]

T1 sequence (P29274 whole entry): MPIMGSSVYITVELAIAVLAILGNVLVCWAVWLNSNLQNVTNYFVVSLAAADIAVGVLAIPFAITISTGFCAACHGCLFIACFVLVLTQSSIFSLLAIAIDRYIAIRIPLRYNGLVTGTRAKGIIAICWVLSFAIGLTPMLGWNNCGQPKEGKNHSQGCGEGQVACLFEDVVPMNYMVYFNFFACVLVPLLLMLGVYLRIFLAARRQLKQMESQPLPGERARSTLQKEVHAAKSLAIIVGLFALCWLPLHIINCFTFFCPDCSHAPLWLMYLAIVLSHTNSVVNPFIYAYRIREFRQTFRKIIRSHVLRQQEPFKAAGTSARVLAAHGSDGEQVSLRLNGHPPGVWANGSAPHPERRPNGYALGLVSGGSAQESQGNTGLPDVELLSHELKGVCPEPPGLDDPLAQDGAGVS

Structure (SMILES)	Ki [1] [nM]	Ki [2] [nM]	melting point [°C]	Ki [3] [nM]
COc1ccc(C=NNc2cc(N)c3ncn(C)c3n2)c(OC)c1 [Compound 6, 2-(2,4-dimethoxy-2-benzylhydrazon)-6-amino-9-methyl-1-deazapurine]	2000	6310	–	–
Cn1cnc2c(N)cc(N3OC4C=CC3CC4)nc21 (stereo not drawn) [Compound 1, 2-(2-oxa-3-azabicyclo[2.2.2]oct-5-en-3-yl)-6-amino-9-methyl-1-deazapurine]	15800	–	169.9	–
Cn1cnc2c(N)cc(NN=CCc3ccccc3)nc21 [Compound 3, 2-(2-phenylethyl-hydrazone)-6-amino-9-methyl-1-deazapurine]	3160	2510	182.1	–
Cn1cnc2c(N)cc(N[C@H]3CC[C@@H](O)CC3)nc21 [Compound 2, 2-(cis-4-hydroxycyclohexylamino)-6-amino-9-methyl-1-deazapurine]	7940	–	–	–
Cn1cnc2c(N)cc(NN=CC3CCCCC3)nc21 [Compound 8, 2-(cyclohexylmethyl-hydrazone)-6-amino-9-methyl-1-deaza-purine]	2000	3160	–	–
COc1ccc(C=NNc2cc(N)c3ncn(C)c3n2)cc1 [Compound 5, 2-(4-methoxy-2-benzylhydrazon)-6-amino-9-methyl-1-deazapurine]	1000	–	–	–
Cn1cnc2c(N)cc(NN=Cc3ccccc3)nc21 [Compound 4, 2-benzylhydrazone-6-amino-9-methyl-1-deazapurine]	1260	3980	231.7 to 232.8	2510
